EP4786454A1, “HETEROARYL DERIVATIVE AND USE THEREOF” (priority 2023, dated 2025)

Columns and labels:
[1] = Plasma protein binding rate, equilibrium dialysis (dog plasma); assay type: in vitro ADME, beagle dogs; conditions: d (beagle dog plasma), dialysis 4 hours at 37 °C, read-out: Unbound PPB%
Procedure: The protein binding rates of the compounds in the plasma of CD-1 mice, Sprague-Dawley rats, beagle dogs, cynomolgus monkeys, and human were determined using equilibrium dialysis method.
Commercially available plasma, dual-layer dialysis membrane, and equilibrium dialysis device.
The dual-layer dialysis membrane was soaked in ultrapure water for about 1 hour, removed and then divided into two parts. It was then soaked in an ethanol:water (20:80, v:v) solution for 20 minutes or placed at 2 to 8 °C, and it was valid for 1 month. Before starting the assay, the dialysis membrane was rinsed twice with ultrapure water and then soaked in ultrapure water for another 20 minutes for later use.
On the day of assay, the frozen plasma of CD-1 mice, Sprague-Dawley rats, beagle dogs, cynomolgus monkeys, and human was thawed in running cold tap water. After the plasma was completely thawed, the plasma was centrifuged at 3220×g for 5 minutes, and the suspended substances and precipitates in it were removed. The pH of the plasma was determined. The plasma with a pH in the range of 7.4 ± 0.1 was directly used, or the plasma with a pH in the range of 7.4 ± 0.1 after an adjustment with 1% phosphoric acid or 1M sodium hydroxide was used.
Preparation process of plasma samples: 597 µL of blank plasma from each of the above five species was taken, respectively. 3 µL of a compound or warfarin working solution was added, and the mixture was mixed thoroughly to give a plasma sample with a compound concentration of 2 µM and a warfarin concentration of 2 µM (n=1). The concentration of the organic phase DMSO was 0.5%. The sample was thoroughly mixed before proceeding to the next step.
Preparation process of T0 samples: 50 µL of a plasma sample containing the compound and warfarin was transferred to a sample receiving plate (n=3), and 50 µL of blank PBS was immediately added. Then, 500 µL of stop solution was added to the T0 sample of the compound and warfarin, and the mixture was stored at 2 to 8 °C, waiting to be processed later together with other dialysis-processed samples.
Dialysis process of plasma samples: 100 µL of a compound (2 µM) and warfarin (2 µM) plasma sample was added to the donor of each dialysis well (n=3), and 100 µL of blank PBS was added to the corresponding receiver of the dialysis well. The dialysis plate was placed in a 5% CO2 incubator, and incubated at 37 °C with shaking at approximately 100 rpm for 4 hours.
After the dialysis was completed, 50 µL of dialysis-processed PBS sample and dialysis-processed plasma sample (n=3) were transferred to a new 96-well plate (sample receiving plate). The corresponding volume of the corresponding blank plasma or PBS was added to the sample to make the final volume of each sample well 100 µL, with a plasma to PBS volume ratio of 1:1. All the samples were analyzed by LC-MS/MS after protein precipitation.
The formulas for calculating the unbound fraction (%Unbound), bound fraction (%Bound) and recovery fraction (%Recovery) of a compound are as follows: %Unbound = 100 ×F / T %Bound = 100 - %Unbound %Recovery = 100 ×(F + T)/ T0 wherein F is the concentration of the compound at the receiver of dialysis; T is the concentration of the compound at the supply end of dialysis; and T0 is the concentration of the compound in the plasma at time zero.

MDR1-MDCK I cell line = assay: Permeability evaluation, bidirectional transport (P-gp substrate); assay type: in vitro ADME; conditions: 2.00 µM, 90 minutes
Procedure: The purpose of this study was to evaluate and study the P-gp substrate of the compounds in MDR1 […] cells.
Transport assay: The test sample, nadolol, and metoprolol were administered at a concentration of 2.00 µM, and digoxin was administered at a concentration of 10.0 µM. The administration was performed bidirectionally (A-B and B-A directions), with two replicates for each administration concentration. The dosing solution, receiving solution, and transport buffer were pre-incubated in a 37.0 °C water bath for 30 minutes. The cell layer was rinsed twice with transport buffer. The dosing solution and receiving solution were added to the corresponding wells of the cell plate, respectively (75.0 µL to each apical well and 250 µL to each basolateral well, respectively). After the addition of samples, the cell plate was incubated in an incubator at 37.0°C, 5.0% CO2 and saturated humidity for 90 minutes. The initial dosing solution was used as the T0 sample. After 90 minutes of incubation, samples were collected from each well and labeled as A-B receiver, B-A receiver, A-B donor, and B-A donor, respectively. After the sample collection, all samples were mixed with an appropriate volume of transport buffer and stop solution. All samples were vortexed, and then centrifuged at 20.0 °C and 3220 × g for 10 minutes. An appropriate volume of the supernatant was transferred to a sample analysis plate. After sealing the plate, the samples were stored at 2.0 to 8.0 °C if not analyzed immediately. Analysis was performed using LC-MS/MS.
Cell membrane integrity assay: After the transport assay, the integrity of the MDR1-MDCK II cell layer was assayed by the Lucifer Yellow Rejection Assay. The remaining solution in the apical and basolateral wells was removed. 75.0 µL of transport buffer containing 100 µM Lucifer Yellow was added to the apical well, and 250 µL of transport buffer was added to the basolateral well, respectively. The cell plate was incubated in a cell culture incubator at 37 °C, 5% CO2 and saturated humidity for 30 minutes. Then, 20.0 µL of sample was taken from the apical end and mixed with 60.0 µL of transport buffer, and 80.0 µL of sample was taken from the basolateral end. The relative fluorescence unit (RFU) was measured at 425/528 nm (excitation/emission) using a microplate reader.
In this study, the sample analysis of the compounds and control compounds of nadolol, metoprolol, and digoxin was performed using LC-MS/MS. The retention time of the analytes and internal standards, chromatogram acquisition, and chromatogram integration were processed using the software Analyst (Sciex, Framingham, MA, USA). […] Semi-quantitative determination was performed using the ratio of the peak area of analyte to the peak area of internal standard.
The apparent permeability coefficient (Papp, cm/s), efflux ratio (ER), and recovery rate (%Solution Recovery) were calculated using the following formulas. Papp = (VR)/(Area × Time) × ([drug]receiver)/([drug]initial, donor) = (VR)/(Area × Time) × (CR)/(C0) [formula] Efflux Ratio = (Papp (B−A))/(Papp (A−B)) [formula] %Solution Recovery = (CR × VR + CD × VD)/(C0 × VD) × 100 [formula]
VR is the volume of the receiver solution (0.0750 mL for side A, and 0.250 mL for side B); Area is the surface area of the cell monolayer (0.143 cm^2); Time is the incubation time (5400 s); C0 is the initial peak area ratio of the test compound or the control compound at the donor; VD is the volume of the donor (0.0750 mL for side A, and 0.250 mL for side B); CD and CR are the peak area ratios of the test compound or the control compound at the donor and the receiver, respectively. The transmittance of Lucifer Yellow (%Lucifer Yellow) was calculated using the following formula: %Lucifer Yellow = (VBasolateral × RFUBasolateral)/(VApical × RFUApical + VBasolateral × RFUBasolateral) × 100 [formula]
RFUApical and RFUBasolateral are the relative fluorescence units of Lucifer Yellow at the apical and basolateral ends, respectively. […]

CC(C)(C)CC(=O)Nc1nc2c(F)cc(C#N)cn2c1C1=CCCC1 [Compound 3]
fraction unbound at 4 h, 2 µM [1]: 0.203 | HMDR1 Papp A to B (MDR1-MDCK I cell line): 7.52 10^-6 cm/s | HMDR1 Papp B to A (MDR1-MDCK I cell line): 31.2 10^-6 cm/s

CC(C)(C)CC(=O)Nc1nc2c(F)cc(C#N)cn2c1-c1ccc(OC(F)(F)F)cc1 [Compound 1]
fraction unbound at 4 h, 2 µM [1]: 0.046 | HMDR1 Papp A to B (MDR1-MDCK I cell line): 3.64 10^-6 cm/s | HMDR1 Papp B to A (MDR1-MDCK I cell line): 18.3 10^-6 cm/s

CC(C)(C)CC(=O)Nc1nc2c(F)cc(C#N)cn2c1C12CC(C1)C2 [Compound 5]
fraction unbound at 4 h, 2 µM [1]: 0.278 | HMDR1 Papp A to B (MDR1-MDCK I cell line): 12.4 10^-6 cm/s | HMDR1 Papp B to A (MDR1-MDCK I cell line): 42.4 10^-6 cm/s
